Reference: ChEMBL document CHEMBL5126545, “Development of inhibitors targeting glycogen synthase kinase-3β for human diseases: Strategies to improve selectivity” (Eur J Med Chem, 2022)
One block for each compound: values may come before it. *1 amine or outer side, *2 acyl side, *3 side chain or, on linkers, in order; H or OH if unused. Where a SMILES comes first, the peptide text is derived from it. [ ]: non-standard residue; d: D form. The star is where a group is joined. X1 = C[C@H](N[*:1])C(=O)C1CCC[C@H]1C(=O)[*:2]; Myristoyl = CCCCCCCCCCCCCC(=O)*

Tests used:
[1] = biological target: T1, Glycogen synthase kinase-3 beta (Homo sapiens, UniProt P49841); assay: Inhibition of human recombinant GSK3-beta
T1 sequence (P49841 whole entry): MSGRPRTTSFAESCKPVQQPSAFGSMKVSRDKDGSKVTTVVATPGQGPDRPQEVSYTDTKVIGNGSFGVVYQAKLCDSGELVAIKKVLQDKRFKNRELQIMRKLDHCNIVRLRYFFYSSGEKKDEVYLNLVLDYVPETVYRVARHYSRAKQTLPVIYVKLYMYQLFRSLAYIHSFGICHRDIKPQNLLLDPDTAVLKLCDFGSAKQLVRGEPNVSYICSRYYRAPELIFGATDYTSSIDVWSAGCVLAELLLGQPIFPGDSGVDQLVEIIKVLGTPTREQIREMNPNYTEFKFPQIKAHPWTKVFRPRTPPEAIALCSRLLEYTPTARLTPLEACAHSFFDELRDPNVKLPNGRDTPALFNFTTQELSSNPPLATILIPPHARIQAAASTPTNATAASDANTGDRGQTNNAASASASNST

[2] = biological target: T1, Glycogen synthase kinase-3 beta; assay: Inhibition of GSK-3beta (unknown origin) using peptide YRRAAVPPSPSLSRHSSPHQ(pS)EDEEE as substrate incubated for 5 to 60 mins by ADP-Glo kinase assay
Protein kinase C (PKC) = assay: Inhibition of rat brain PKC using peptide PANKTPPKSPGEPAK as substrate incubated for 20 mins in presence of phosphatidyl serine
[3] = Inhibition of CDK-1/cyclin B (unknown origin) using histone H1 as substrate incubated for 20 mins by liquid scintillation counter analysis; set-up: species or system Homo sapiens
[4] = Inhibition of bovine heart PKA using stathmin as substrate incubated for 20 mins by liquid scintillation counter analysis; set-up: species or system Bos taurus
[5] = Inhibition of bovine brain CK2 using stathmin as substrate; set-up: species or system Bos taurus
[6] = biological target: T1, Glycogen synthase kinase-3 beta; assay: Inhibition of GSK3-beta (unknown origin) by Kinase-Glo Max assay kit
[7] = biological target: T1, Glycogen synthase kinase-3 beta; assay: Inhibition of GSK-3beta (unknown origin) using biotin-labelled IRS-1 peptide as substrate incubated for 15 mins by ELISA based assay
[8] = Inhibition of GSK-3beta (unknown origin) using GS-1 as substrate incubated for 20 mins
[9] = biological target: T1, Glycogen synthase kinase-3 beta; assay: Inhibition of GSK-3beta (unknown origin)
SH-SY5Y = assay: Neuroprotective activity against human SH-SY5Y cells pretreated for 1 hr followed by muMAbeta42 measured after 72 hrs; type: functional, cell-based
[10] = Inhibition of recombinant rabbit GSK-3beta using peptide YRRAAVPPSPSLSRHSSPHQ(pS)EDEEE as substrate incubated for 10 mins; set-up: species or system Oryctolagus cuniculus

SMILES: COc1cc2c(c(OC)c1OC)-c1c(cc3c(c1OC)OCO3)C[C@@H](C)[C@@H](C)C2 [KADSURANIN]
IC50 [1]: 0.081 µM

SMILES: COc1ccc(-c2cc(=O)c3c(OC)c([C@@H]4O[C@H](C(=O)NCc5ccccc5)[C@@H](O)[C@H](O)[C@H]4O)c(OC)cc3o2)cc1OC
IC50 [2]: 16 µM

SMILES: FC(F)(F)c1ccc(/C=N/Nc2nnc3n2N=C(c2ccc(Cl)cc2)CS3)cc1
IC50 [6]: 0.883 µM

SMILES: O=C1c2ccccc2-c2onc3c(N4CCN(c5ccc(O)cc5)CC4)cc(NCCP(=O)(O)O)c1c23
IC50 [7]: 1 µM

SMILES: O=C(O)c1ccc(N2CCN(c3cc(NCCP(=O)(O)O)c4c5c(onc35)-c3ccccc3C4=O)CC2)cc1
IC50 [7]: 1 µM

SMILES: CC(C)Oc1cccc(-c2ccc3cnc(C(=O)NCC4CCOCC4)n3c2)c1
IC50 [9]: 0.072 µM

SMILES: Cc1ccc(C(=O)CCl)s1
IC50 [9]: > 100 µM

SMILES: COc1cc2c(c(OC)c1OC)-c1c(cc3c(c1OC)OCO3)C[C@H](C)[C@H](C)C2 [WUWEIZISU B]
IC50 [1]: 0.073 µM

SMILES: C[S+]([O-])CCCCCCN=C=S (centres undefined)
IC50 [9]: 70 µM

SMILES: CN(c1ncnc2[nH]c3cc(Cl)ccc3c12)C1CCCN(C(=O)CC#N)C1 (centres undefined)
IC50 [9]: 2 µM

SMILES: O=C(CCl)c1cc(Cl)c(Cl)s1
IC50 [9]: 3 µM

SMILES: COc1ccc(-c2cc(=O)c3c(OC)c([C@@H]4O[C@H](C(=O)N[C@@H](C)C(F)(F)F)[C@@H](O)[C@H](O)[C@H]4O)c(OC)cc3o2)cc1OC
IC50 [2]: 2 µM

SMILES: COc1ccc(-c2cc(=O)c3c(OC)c([C@@H]4O[C@H](C(=O)N[C@H](C)C(F)(F)F)[C@@H](O)[C@H](O)[C@H]4O)c(OC)cc3o2)cc1OC
EC50 (SH-SY5Y): 9 µM
IC50 [2]: 0.6 µM

SMILES: CCCCCCCCCCCCCC(=O)NCC(=O)N[C@@H](CCCCN)C(=O)N[C@@H](CCC(=O)O)C(=O)N[C@@H](C)C(=O)C1CCC[C@H]1C(=O)N1CCC[C@H]1C(=O)N[C@@H](C)C(=O)N1CCC[C@H]1C(=O)N1CCC[C@H]1C(=O)N[C@@H](C)C(=O)N[C@@H](CO)C(=O)N1CCC[C@H]1C(=O)N1CCC[C@H]1C(N)=O (some centres undefined) (Myristoyl-GKE[X1]PAPPASPP-NH2)
IC50 [10]: 40 µM

SMILES: O=c1cc(-c2ccc(O)c(O)c2)oc2cc(O)c([C@@H]3O[C@H](CO)[C@@H](O)[C@H](O)[C@H]3O)c(O)c12 [ISOORIENTIN]
EC50 (SH-SY5Y): 47 µM

SMILES: CC(C)Oc1cccc(-c2ccc3[nH]nc(C(=O)NCC4CCOCC4)c3c2)c1
IC50 [9]: 0.004 µM

SMILES: COc1ccc(-c2cc(=O)c3c(OC)c([C@@H]4O[C@H](C(=O)NC(C)C)[C@@H](O)[C@H](O)[C@H]4O)c(OC)cc3o2)cc1OC
IC50 [2]: 5 µM

The next lines start with results.

IC50 (Protein kinase C (PKC)): > 100 µM
IC50 [5]: > 100 µM
SMILES: Cn1sc(=O)n(Cc2ccccc2)c1=O
IC50 [3]: > 100 µM
IC50 [4]: > 100 µM

IC50 [8]: 25 µM
SMILES: CCn1sc(=O)n(CC)c1=O

IC50 [9]: 0.0004 µM
SMILES: Cn1cc(C2=C(c3coc4ccccc34)C(=O)NC2=O)c2cc(F)ccc21

IC50 [9]: 0.003 µM
SMILES: Nc1nccc(CNC(=O)c2ccc3c(c2)/C(=C/Cc2cccc(C(=O)O)c2)C(=O)N3)n1

IC50 [7]: 18 µM
SMILES: COc1ccc(N2CCN(c3cc(NCCC(=O)O)c4c5c(onc35)-c3ccccc3C4=O)CC2)cc1

IC50 [8]: 3 µM
SMILES: Cn1sc(=O)n(-c2cccc3ccccc23)c1=O

IC50 [8]: 20 µM
SMILES: CCn1sc(=O)n(CC)c1=S

IC50 [7]: 8 µM
SMILES: O=C(O)CCNc1cc(N2CCN(c3ccc(F)cc3)CC2)c2noc3c2c1C(=O)c1ccccc1-3
